From patent US20090196864A1 (priority 2005, published 2009)
Like-named read-outs stand apart in the source and are kept apart here. Where a SMILES comes first, the peptide text is derived from it. The star is where a group is joined. Cbz = O=C(OCc1ccccc1)*; CH2F = FC*

Tests used:
[1] = tested on: S5 cells; type: cell-based, Trichoplusia ni
[2] = tested on: S5 cells; type: cell-based, Trichoplusia ni; remark: listed apart in the source
[3] = tested on: S5 cells; conditions: Zhang et al. 2005, cited from earlier work; for Effect of chelator on toxin-induced death: S5 cells pre-treated with chelator, then Cry1Ab toxin
[4] = tested on: S5 cells; conditions: Zhang et al. 2005, cited from earlier work; for Effect of osmotic protectant on blebbing and swelling of toxin-exposed cells: 30 mM protectant
[5] = tested on: S5 cells; conditions: either stage of cytotoxicity; shown previously; cited from earlier work
[6] = tested on: H5 cells; type: cell-based, Trichoplusia ni
[7] = tested on: H5 cells; conditions: cultured H5 cells without receptor; Zhang et al. 2005; cited from earlier work
[8] = tested on: S5 cells; type: cell-based, Trichoplusia ni; remark: listed apart in the source

With CO/C1=C\C(C)=C\[C@@H](C)[C@@H](O)[C@@H](C)C/C(C)=C/C=C/[C@H](OC)[C@@H]([C@@H](C)[C@@H](O)[C@H](C)[C@@]2(O)C[C@@H](O)[C@H](C)[C@@H](C(C)C)O2)OC1=O [Bafilomycin A] the Cell death [1] was “+ (key: + = 80 ± 5% cell death; − = no cell death)”.
For Cc1ccc(S(=O)(=O)N[C@@H](Cc2ccccc2)C(=O)CCl)cc1 [TPCK], the Cell death [1] was “+ (key: + = 80 ± 5% cell death; − = no cell death)” and the “Effect on Cry1Ab-induced toxicity and cell death” value [1] was “had no effect”.
In the case of CC(C)Cn1c(=O)n(C)c(=O)c2[nH]cnc21 [IBMX], the “Level of cAMP” value [2] is reported as “did not cause any elevation”.
For OC[C@H]1O[C@H](OC[C@H]2O[C@H](O[C@]3(CO)O[C@H](CO)[C@@H](O)[C@@H]3O)[C@H](O)[C@@H](O)[C@@H]2O)[C@H](O)[C@@H](O)[C@H]1O [raffinose], the “Fate of protectant-treated S5 cells after Cry1Ab exposure” value ([3]; raffinose-treated cells) is listed as “eventually died” and the “Effect of osmotic protectant on blebbing and swelling of toxin-exposed cells” value [4] is listed as “arrested in the blebbing stage and did not swell”.
With C[C@H]1O[C@@H](n2cnc3c(N)ncnc32)C[C@@H]1OP(=O)(O)OP(=O)(O)O [ddADP, 2′,5′-dideoxy-3′-ADP] the “Reduction of number of cells undergoing cell death” value [1] was 50%.
In the case of Cl.NCCc1ccc(S(=O)(=O)F)cc1 [Pefabloc], the Cell death [1] is reported as “+ (key: + = 80 ± 5% cell death; − = no cell death)” and the “Effect on Cry1Ab-induced toxicity and cell death” value [1] is reported as “had no effect”.
For O=C(O)CN(CCOCCOCCN(CC(=O)O)CC(=O)O)CC(=O)O [EGTA], the “Effect of chelator on toxin-induced death” value [3] is listed as “fully susceptible” and the Cell death [1] is listed as “+ (key: + = 80 ± 5% cell death; − = no cell death)”.
In the case of Cry1Ab toxin, the Internalization of toxin [5] is listed as “not internalized”, the cAMP levels [6] is listed as “did not change” and the “Effect of toxin on cells” value [7] is listed as “not affected”. For the same molecule, the cAMP production [2] was “increased in a time-dependent manner”, the “Time to cell swelling and lysis” value ([4]; S5 cells) was at most 40 min and the “Time to membrane blebbing after toxin exposure” value ([4]; S5 cells) was at most 20 min. The “Externalization of phosphatidylserine or DNA fragmentation” value [8] was “no externalization of phosphatidylserine or DNA fragmentation was observed”.
With C=C1[C@@H](C)[C@H]2[C@H](Cc3ccccc3)NC(=O)[C@]23[C@H](OC(C)=O)/C=C/[C@@](C)(O)C(=O)[C@@H](C)C/C=C/[C@H]3[C@@H]1O [Cytochalasin D] the Cell death [1] was “+ (key: + = 80 ± 5% cell death; − = no cell death)”.
For O=C(Nc1cc(C(=O)Nc2ccc(S(=O)(=O)O)cc2S(=O)(=O)O)cc(C(=O)Nc2ccc(S(=O)(=O)O)cc2S(=O)(=O)O)c1)Nc1cc(C(=O)Nc2ccc(S(=O)(=O)O)cc2S(=O)(=O)O)cc(C(=O)Nc2ccc(S(=O)(=O)O)cc2S(=O)(=O)O)c1 [NF449], the “Decrease of relative toxicity (cell death) mediated by Cry1Ab” value [1] was 50%.
In the case of OC[C@H]1O[C@@](CO)(O[C@H]2O[C@H](CO)[C@@H](O)[C@H](O)[C@H]2O)[C@@H](O)[C@@H]1O [Sucrose, sucrose], the “Effect of osmotic protectant on blebbing and swelling of toxin-exposed cells” value [4] is given as “partially prevented cell swelling”.
With COC(=O)Nc1nc2ccc(C(=O)c3cccs3)cc2[nH]1 [Nocodazole] the Cell death ([1]; S5 cells treated with inhibitor, switched to inhibitor-free buffer before Cry1Ab toxin treatment, percent of dead cells by Trypan blue staining) was “+ (+ = 80 ± 5% cell death)”.
With Nc1ncnc2c1nc(Sc1ccc(Cl)cc1)n2[C@@H]1O[C@@H]2COP(=O)(O)O[C@H]2[C@H]1O [pCPT-cAMP] the “Cell death with Cry1Ab after pre-treatment” value [1] was about 100% and the “Cell death without Cry1Ab treatment” value [1] was “Neither FSK nor pCPT-cAMP alone was sufficient to bring about cell death”.
In the case of COC(=O)C[C@H](NC(=O)[C@H](C)NC(=O)[C@@H](NC(=O)OCc1ccccc1)C(C)C)C(=O)CF [Z-VAD-fmk] (Cbz-Val-Ala-Asp(OMe)-CH2F), the Cell death [1] is reported as “+ (key: + = 80 ± 5% cell death; − = no cell death)” and the “Effect on Cry1Ab-induced toxicity and cell death” value [1] is reported as “did not suppress”.
In the case of O=C(Nc1cccc(C(=O)Nc2ccc(S(=O)(=O)O)c3cc(S(=O)(=O)O)cc(S(=O)(=O)O)c23)c1)Nc1cccc(C(=O)Nc2ccc(S(=O)(=O)O)c3cc(S(=O)(=O)O)cc(S(=O)(=O)O)c23)c1 [NF023], the “Effect on Cry1Ab toxicity” value [1] is reported as “did not have any effect”.
For O=C(O)CN(CCN(CC(=O)O)CC(=O)O)CC(=O)O [EDTA], the “Effect on Cry1Ab-induced cAMP levels” value [2] is given as “virtually precluded any increase in cAMP levels”, the “Effect on FSK induction of cAMP” value [2] is given as “precluded FSK induction of cAMP” and the “Effect of chelator on toxin-induced death” value [3] is given as “completely abolished toxin-induced death”. The Cell death [1] was “− (key: + = 80 ± 5% cell death; − = no cell death)” and the “Effect on Cry1Ab-induced toxicity and cell death” value [1] was “prevented completely”.
